From US8802635B2, “Antioxidant, anti-inflammatory, anti-radiation, metal chelating compounds and uses thereof” (Oneday—Biotech And Pharma Ltd., priority 2011, dated 2014) come the findings set out here.

Data set [1] relates to alanine aminotransferase (ALT) in plasma / liver necrosis. As to the kind of experiment: Concanavalin A-induced liver inflammation in C57BL/6 mice. Type of data set: in vivo. To be noted: ConA dose 180 μg/mouse. As to the method:
Six groups of C57BL/6 female mice (7-8 weeks old) containing 6 mice in each group were injected i.p. with different peptide on days −3, −2, −1 at a dose of 50 mg/kg or with PBS alone. On day zero all the mice were injected i.v. with 250 μg/mouse of Con A and 45 min. later they were injected i.p. with 150 mg/kg of each peptide or PBS.
Eight hours after Con A injection mice were bled into heparinized tubes (approx. 150 ul of blood from each mouse) and the levels of alanine aminotransferase (ALT) was measured in the plasma.
One day later the mice were sacrificed and their livers were placed in 4% formalin and sent for pathological examination.
Next, peptide DY-66 was examined and compared to N-acetylcysteine (NAC), CB3 and CB4. The compounds were tested according to the procedure described above. ConA dose was 180 μg/mouse.
FIG. 8 presents the change in ALT levels (%) for each of the tested compounds compared to PBS treatment (i.e., the ratio between ALT levels in samples obtained from mice treated with a tested compound and ALT levels in samples obtained from PBS-treated mice)

The subject of a further data set is IkappaBalpha. In words: Cytoplasmic stability of I-kappaBalpha in lung, zymosan-induced inflammation. Type of data set: in vivo, mice. To be noted: lung tissue, 24 hours after zymosan. As to the method:
Male BALB/c mice were randomly allocated into the following experimental groups:
The peptides were administered by an intraperitoneal (i.p.) route of administration as described in Example 3.
The peptides were formulated in D5W as described in Example 3. The vehicle control was D5W.
At 24 hours after administration of zymosan, animals were euthanized and assessed for inflammation by an NF-κB analysis of lung tissue.
Tissues were homogenized and nuclear extracts prepared via centrifugation. ELISA for IkappaBalpha was performed, using a series of standards in order to define absolute concentrations.

Another data set has as its system anti-OVA serum IgE. In words: Ovalbumin-induced hypersensitivity: serum anti-OVA IgE. Type of data set: in vivo, mice. The note with it: 125 mg/kg i.p. on days 13, 14, 15; blood day 16. As to the method: (§1) Male BALB/c mice (6-8 weeks old) were housed under specific pathogen-free conditions and maintained on a 12-hour light/dark cycle, with food and water ad libitum. All materials and drugs were obtained from Sigma, Inc.
(§2) Mice in Groups A, B, C, and E (n=10 per group) were sensitized with intraperitoneal (i.p.) 200 μl of sterile PBS containing 100 μg ovalbumin (OVA) and 1.6 mg alum on days 0 and 7, and challenged with intraperitoneal (i.p.) 200 μl of sterile PBS containing 10 μg ovalbumin (OVA) on day 14 in order to induce an experimental model of allergic peritonitis. Mice in Group F (n=10) were injected with intraperitoneal (i.p) 200 μl sterile PBS (“sham” group, no OVA and no Alum).
(§3) Mice in Groups A, B, and C, were treated with 150 μl of sterile PBS containing peptides DY-66, DY-65 and DY-70, respectively, at a dose of 125 mg/kg on days 13, 14, and 15 via an i.p. route of administration.
(§4) Mice in Groups E and F were treated with 150 μl of sterile PBS on days 13, 14, and 15 via an i.p. route of administration. On day 14 the test articles (or PBS vehicle) were injected 30 minutes before injecting the OVA.
Blood taken on day 16 was tested for 1) serum anti-OVA IgE, 2) white blood cell count and differential (including absolute and percentage of eosinophils count). Serum was frozen at −80° C. for future optional blood tests.

A further data set concerns p38 MAP Kinase. In words: Inhibition of oxidative stress (auranofin)-induced p38 phosphorylation in SH-SY5Y cells. To be noted: auranofin 5 μM. Type of data set: cell-based, Human. As to the method: (§5) Human neuroblastoma SH-SY5Y cells were maintained in Dulbecco's modified Eagle's medium (DMEM, Invitrogen) supplemented with 10% fetal bovine serum (Invitrogen), 100 μg/ml streptomycin and 100 U/ml penicillin G (Gibco). Cells were plated at a density of 6.25×10^4/cm^2 and incubated for 24 hours, after which they were exposed to different treatments.
(§6) SH-SY5Y cells were plated on 96-well plates and treated with Auranofin (AuF) (5 μM) for 30 min. Then the cells were washed with PBS and treated with either one of the peptides at the indicated concentrations. Twenty-four hours later, the cells were fixed with glutaraldehyde in final concentration of 0.5% for 10 min. Cells were washed 3 times with DDW dried over night, and washed once with borate buffer (0.1M, pH 8.5). The fixed cells were stained with 200 μl of 1% methylene blue dissolved in borate buffer for 1 hour. After extensive washing and drying, the color was extracted with 200 μl of 0.1 M HCl for 1 h at 37° C. and absorbance was read in spectrophotometer at 630 nm.
(§7) Twenty to thirty micrograms of protein samples were loaded on 10-12% SDS-PAGE gels. The proteins were then transferred electrophoretically to nitrocellulose (Whatman, Germany). The blots were blocked by incubation for 1 h at room temperature (RT) in TBS-T (25 mM Tris-HCl pH 7.4, 0.9% NaCl and 0.02% Tween-20) with 4% Difco skim milk (BD, USA), and incubated over-night at 4° C. with the primary antibody: pERK1/2 (Thr 202/Tyr204), mouse mAb, (1:6,000); p-SAPK/JNK (Thr183/Tyr185), rabbit mAb; SAPK/JNK, mouse mAb; p-p38MAP Kinase (Thr180/Tyr182), rabbit mAb; cleaved caspase 3, rabbit mAb. All antibodies were from Cell Signaling Tech. USA, used at 1:1000. Purified b Catenin, mouse mAb, (1:10,000; BD Transduction Laboratories, USA) diluted in 5% BSA, 0.04% Azide in TBS-T. Proteins were detected with Anti-Mouse or Anti-Rabbit IgG-HRP linked antibody (1:10,000; Cell Signaling, Tech. USA).

Data set [2] in a line: Metal chelation: ferric ion binding by mass spectra (ESI). To be noted: 0.83 mM peptide, 1.66 mM FeCL3, 1 hour room temperature. As to the method:
(§8) All five peptides were examined for their ability to bind copper and ferric ions. 0.83 mM of each peptide were mixed with 1.66 mM of either FeCL3 or CuSO4. The mixtures were incubated for 1 hour at room temperature and further kept at ° 4 C until analysis. Samples were analyzed by mass spectra (ESI).

In data set [3] the test system is JNK (c-Jun N-terminal kinases). In words: Inhibition of oxidative stress (auranofin)-induced JNK phosphorylation in SH-SY5Y cells. To be noted: auranofin 5 μM. The class given is cell-based, Human. As to the method: as §5, §6, §7
Data set [4] concerns HaCaT cells. In words: UVB-induced cytotoxicity in HaCaT cells (MTT). The class given is cell-based. To be noted: UVB 0.05 J/cm^2; MTT after 72 hours. As to the method:
HaCaT cells were seeded in 96-wells plate (10×10^4/ml) and incubated in 37° C., 6% CO2 for 24 hours. Cells were incubated with the peptides at the indicated concentrations for 2.5 hours and washed (PBS). Then 100 μl PBS were added to each well followed by UVB irradiation (0.05 J/cm^2). Cells were washed with PBS and incubated with culture medium (DMEM, 100 μl) containing the peptides. MTT assay was carried out after 72 hours.

A short description of data set [5]: Metal chelation: copper binding by mass spectra (ESI). The note with it: 0.83 mM peptide, 1.66 mM CuSO4, 1 hour room temperature. As to the method: as §8
The subject of data set [6] is HaCaT cells. As to the kind of experiment: Hydrogen peroxide-induced HaCaT keratinocyte cytotoxicity (MTT). The class given is cell-based. The note with it: for protection of cell viability after hydrogen peroxide exposure (in words): 90 μM hydrogen peroxide 30 min, MTT after 72 hours. As to the method:
All five peptides were examined in this Example, and their activity was compared to the known CB3 peptide. HaCaT cells were seeded in 96-well plate at a concentration of 10×10^4 cells/ml for 24 hours. Then cells were incubated with the peptides at the indicated concentrations for 2.5 hours followed by washing with PBS and incubation with 90 μM hydrogen peroxide (without peptide) for 30 minutes. Cells were washed with PBS and incubated with culture medium containing peptide for 72 hours. Cell viability was tested by MTT. The effect of the peptides on cell viability was performed similarly without hydrogen peroxide exposure.

The test system of data set [7] is malondialdehyde (MDA) in lung tissue. As to the kind of experiment: MDA (lipid peroxidation) in lung, zymosan-induced inflammation. Type of data set: in vivo, mice. The note with it: i.p. 3x50 mg/kg before, 120 mg/kg 30 min before and 5 h after zymosan; 24 h; p<0.05. As to the method:
Male BALB/c mice were randomly allocated into the following experimental groups (8 mice for each group):
The peptides were administered by an intraperitoneal (i.p.) route of administration as follows: • The first dose (50 mg per kg) was given 3 days before the zymosan injection. • The second dose (50 mg per kg) was given 2 days before the zymosan injection. • The third dose (50 mg per kg) was given 1 day before the zymosan injection. • The fourth dose (120 mg per kg) was given 30 minutes before the zymosan injection. • The fifth dose (120 mg per kg) was given 5 hours after the zymosan injection.
The peptides were formulated in D5W (5% dextrose in water, “D5W”). The vehicle control was D5W. At 24 hours after administration of zymosan, animals were euthanized and assessed for inflammation by an MDA (malondialdehyde) analysis of lung tissue. All the materials and drugs (apart from the peptides) were obtained from Sigma, Inc.
Malondialdehyde (MDA) formation was used to quantify lipid peroxidation, measured as thiobarbituric acid-reactive material. […] After cooling to room temperature, samples were cleared by centrifugation at 10,000 g for 10 min and absorbance was measured at 532 nm using 1,1,3,3-tetramethoxypropane as an external standard. The level of lipid peroxides was expressed as nM MDA/mg protein.

For data set [8], the system named is cellularity of the peritoneal exudates. In words: Ovalbumin-induced hypersensitivity (allergic peritonitis): peritoneal cellularity. Type of data set: in vivo, mice. To be noted: 125 mg/kg i.p. on days 13, 14, 15. As to the method: as §1, §2, §3, §4
Data set [9] deals with carrageenan-induced hind paw swelling. In words: Carrageenan-induced hind paw swelling. To be noted: 150 mg/kg i.p. 30 min prior to carrageenan. The class given is in vivo, mice. As to the method:
The above new five peptides were examined for anti-inflammatory activity, and their activity was compared to that of peptide CB3. Male ICR mice received an i.p. administration of each of the tested peptide (150 mg/kg) 30 min prior to the injection of carrageenan into the sub-plantar area of both of the animal's hind paws. Carrageenan was dissolved in water at concentration of 3 mg/ml and injected at a volume of 50 μl. Hind paw thickness was measured by Mitutoyo® micrometer before carrageenan injection and afterward at intervals of 1 hour between each measurement. Swelling was calculated as the difference between the thickness of the hind paw measured at each time interval and its size at time 0 (before carrageenan injection). n=6 foot pads (3 animals) for each group.
For orientation: The carrageenan paw model is a standard test of acute inflammation.

Starred links: 1 amine or outer side, 2 acyl side, 3 side chain; linkers in the order of their positions; H or OH if unused. Non-standard residues stand in square brackets, D forms with d. γGlu = O=C(O)[C@H](CCC(=O)[*:2])N[*:1]

Consider `CC(=O)N[C@@H](CS)C(=O)O` [NAC, N-acetylcysteine, reference compound], for which the “ALT level compared to PBS-treated mice (in words)” value in data set [1] was “did not induce a significant change in ALT level”.
Turning to “N-acetyl-Cys-Gly-Pro-Cys-NH2 (Ac-CGPC-NH2; cysteine pairing not given here) [CB4, reference compound]”, in data set [1], the “ALT level compared to PBS-treated mice (in words)” value is on record as “highly increased ALT level”.
Consider “N-acetyl-Cys-Met-Lys-Cys-NH2 (Ac-CMKC-NH2; cysteine pairing not given here) [DY-70]”, for which the “rank order of efficacy on cytoplasmic IkappaBalpha” value in the data set with IkappaBalpha was “DY-70>DY-65>DY-66”. Moreover, in the data set on anti-OVA serum IgE, the “effect on OVA-induced elevation of anti-OVA serum IgE titer (in words)” value is “significantly reduced the elevation” and the “rank order of reduction of anti-OVA serum IgE titer” value is “DY-65>DY-70>DY-66”. For the same compound, in the data set with p38 MAP Kinase, it took 22.2 µM to reach half-maximal inhibition (IC50). Also, the “FeCl binding (in words)” value in data set [2] is on record as “low degree”. For the same compound, 22.1 µM corresponded to half-maximal inhibition in [3] (IC50). Moreover, the “protection against UVB-induced cytotoxicity (in words)” value in the data set on HaCaT cells [4] was “protective effect at low concentrations”. For the same compound, in [5], the “copper binding (in words)” value is given as “low degree”. In addition, in the data set with HaCaT cells [6], the “protection of cell viability after hydrogen peroxide exposure (in words)” value (shortened to “protection of cell viability”) was “fully protected the cells from hydrogen peroxide”. Moreover, in data set [7], the “effect on zymosan-induced elevation of MDA in lung tissue (in words)” value is on record as “inhibited the elevation in MDA concentration”. In addition, in [8], the “effect on OVA-induced elevation of peritoneal exudate cellularity (in words)” value is “significantly reduced the elevation” and the “rank order of reduction of peritoneal exudate cellularity” value was “DY-65>DY-70>DY-66”.
“N-acetyl-Cys-Pro-Cys-NH2 (Ac-Cys-Pro-Cys-NH2; cysteine pairing not given here) [CB3, reference compound]”: the “hind paw swelling compared to control (in words)” value in [9] was “did not show a significant reduction”. Further, the “ALT level compared to PBS-treated mice (in words)” value in data set [1] is reported as “highly increased ALT level”. In addition, the “protection of cell viability” value with HaCaT cells [6] was “slightly elevated cell viability”.
Regarding “N-acetyl-Cys-γGlu-Cys-Cys-NH2 (Ac-C[γGlu]CC-NH2; cysteine pairing not given here) [DY-71]”, the IC50 (in general, the concentration that inhibits the measured activity by half) amounted to 46.9 µM in the data set on p38 MAP Kinase and 82.3 µM in data set [3]. Further, in the data set on HaCaT cells [6], the “protection of cell viability” value is listed as “slightly elevated cell viability”.
Take “N-acetyl-Cys-γGlu-Cys-NH2 (Ac-Cys-[γGlu]-Cys-NH2; cysteine pairing not given here) [DY-67]”: the “hind paw swelling compared to control (in words)” value in data set [9] was “Reduced swelling compared to control”. The results for the IC50 (in the data set with p38 MAP Kinase; in [3]) were 36.5 µM and 67.3 µM, respectively. Moreover, in the data set on HaCaT cells [6] (concentrations of 1-10 μM), the “increase in cell viability” value is reported as “about 45%”.
